According to US11802120B2, “Fused cyclic urea derivatives as CRHR2 antagonist” (RaQualia Pharma Inc., priority 2018, dated 2023):

These compounds were tested against T1, human CRHR2-alpha (Homo sapiens, UniProt Q13324) (assay: cAMP functional assay for human CRHR2 (LANCE Ultra cAMP, TR-FRET)). Conditions: CHO-K1 cells expressing human CRHR2-alpha, agonist human urocortin2 at EC80, cAMP; read-out: IC50 against CRHR2.
T1 sequence (Q13324 1-411): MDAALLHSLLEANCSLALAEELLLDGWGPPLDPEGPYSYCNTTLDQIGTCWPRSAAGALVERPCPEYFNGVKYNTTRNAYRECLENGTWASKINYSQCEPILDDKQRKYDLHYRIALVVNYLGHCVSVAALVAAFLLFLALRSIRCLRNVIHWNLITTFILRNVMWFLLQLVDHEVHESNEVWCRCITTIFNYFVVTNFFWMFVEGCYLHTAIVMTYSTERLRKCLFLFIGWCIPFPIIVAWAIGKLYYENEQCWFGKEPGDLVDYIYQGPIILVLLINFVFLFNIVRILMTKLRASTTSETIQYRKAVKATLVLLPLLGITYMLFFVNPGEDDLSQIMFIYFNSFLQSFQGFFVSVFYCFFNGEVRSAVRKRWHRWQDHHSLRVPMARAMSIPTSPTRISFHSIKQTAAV
Format: cell-based
Method in brief: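 First, starved and frozen CHO-K1 cells expressing the receptor are thawed into IBMX-containing HBSS buffer (pH 7.4). Next, compounds are added for 30 min at 25° C. Then agonist at EC80 (urocortin2 or CRF, per receptor) is added for another 30 min, followed by cAMP detection reagents.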

IC50, < 300 nM:
O=C(N[C@H]1CC[C@H](Cn2c(=O)n(-c3cc(F)ccc3Cl)c3cccnc32)CC1)c1cc(Cl)cnc1C(F)F [Example 676, 5-chloro-N-((1r,4r)-4-((1-(2-chloro-5-fluorophenyl)-2-oxo-1H-imidazo[4,5-b]pyridin-3(2H)-yl)methyl)cyclohexyl)-2-(difluoro-methyl)nicotinamide]
O=C(N[C@H]1CC[C@H](Cn2c(=O)n(-c3ccc(NCCO)cn3)c3ccccc32)CC1)c1cc(Cl)cnc1C(F)F [Example 715, 5-chloro-2-(difluoromethyl)-N-((1r,4r)-4-((3-(5-((2-hydroxyethyl)amino)pyridin-2-yl)-2-oxo-2,3-dihydro-1H-benzo[d]imidazol-1-yl)methyl)cyclohexyl)nicotinamide]
CNc1ccc(-n2c(=O)n(C[C@H]3CC[C@H](NC(=O)c4cc(Cl)cnc4C)CC3)c3cc(F)ccc32)cn1 [Example 624, 5-chloro-N-((1r,4r)-4-((6-fluoro-3-(6-(methylamino)pyridin-3-yl)-2-oxo-2,3-dihydro-1H-benzo[d]imidazol-1-yl)methyl)cyclohexyl)-2-methylnicotinamide]
O=C(NCCF)c1ccc(-n2c(=O)n(C[C@H]3CC[C@H](NC(=O)c4cc(Cl)cnc4C(F)F)CC3)c3ccccc32)cn1 [Example 549, 5-(3-(((1r,4r)-4-(5-chloro-2-(difluoromethyl)nicotina-mido)cyclohexyl)methyl)-2-oxo-2,3-dihydro-1H-benzo[d]imidazol-1-yl)-N-(2-fluoroethyl)picolinamide]
O=C(N[C@H]1CC[C@H](Cn2c(=O)n(-c3ccc4ncccc4c3)c3ncccc32)CC1)c1cc(Cl)cnc1C(F)F [Example 362, 5-chloro-2-(difluoromethyl)-N-((1r,4r)-4-((2-oxo-3-(quinolin-6-yl)-2,3-dihydro-1H-imidazo[4,5-b]pyridin-1-yl)methyl)cyclohexyl)nicotinamide]
Cc1ncc(Cl)cc1C(=O)N[C@H]1CC[C@H](Cn2c(=O)n(-c3ccc(NCCC(F)F)nc3)c3ccccc32)CC1 [Example 480, 5-chloro-N-((1r,4r)-4-((3-(6-((3,3-difluoropropyl)amino)pyridin-3-yl)-2-oxo-2,3-dihydro-1H-benzo[d]imidazol-1-yl)methyl)cyclo-hexyl)-2-methylnicotinamide]
CNC(=O)c1ccc(-n2c(=O)n(C[C@H]3CC[C@H](NC(=O)c4cc(Cl)cnc4C)CC3)c3cccc(C)c32)cn1 [Example 192, 5-(3-(((1r,4r)-4-(5-chloro-2-methylnicotinamido)cyclo-hexyl)methyl)-7-methyl-2-oxo-2,3-dihydro-1H-benzo [d]imidazol-1-yl)-N-methylpicolinamide]
CCOc1ccc(-n2c(=O)n(C[C@H]3CC[C@H](NC(=O)c4cc(Cl)cnc4C)CC3)c3ccccc32)cn1 [Example 36, 5-chloro-N-((1r,4r)-4-((3-(6-ethoxypyridin-3-yl)-2-oxo-2,3-dihydro-1H-benzo[d]imidazol-1-yl)methyl)cyclohexyl)-2-methylnicotinamide]
Cn1ccc(-c2cc(-n3c(=O)n(C[C@H]4CC[C@H](NC(=O)c5cc(Cl)cnc5C(F)F)CC4)c4ccccc43)ccn2)n1 [Example 702, 5-chloro-2-(difluoromethyl)-N-((1r,4r)-4-((3-(2-(1-methyl-1H-pyrazol-3-yl)pyridin-4-yl)-2-oxo-2,3-dihydro-1H-benzo[d]imidazol-1-yl)methyl)cyclohexyl)nicotinamide]
O=C(N[C@H]1CC[C@H](Cn2c(=O)n(-c3ccc4cnccc4c3)c3ccccc32)CC1)c1cc(Cl)cnc1C(F)F [Example 397, 5-chloro-2-(difluoromethyl)-N-((1r,4r)-4-((3-(isoquinolin-6-yl)-2-oxo-2,3-dihydro-1H-benzo[d]imidazol-1-yl)methyl)cyclohexyl)nicotinamide]
COc1cccc(-n2c(=O)n(C[C@H]3CC[C@H](NC(=O)c4cc(Cl)cnc4C)CC3)c3ccccc32)c1C#N [Example 246, 5-chloro-N-((1r,4r)-4-((3-(2-cyano-3-methoxyphenyl)-2-oxo-2,3-dihydro-1H-benzo [d]imidazol-1-yl)methyl)cyclohexyl)-2-methyl-nicotinamide]
Cc1ncc(Cl)cc1C(=O)N[C@H]1CC[C@H](Cn2c(=O)n(-c3ccc(-n4ccnc4)cc3)c3ccccc32)CC1 [Example 468, N-((1r,4r)-4-((3-(4-(1H-imidazol-1-yl)phenyl)-2-oxo-2,3-dihydro-1H-benzo[d]imidazol-1-yl)methyl)cyclo-hexyl)-5-chloro-2-methyl-nicotinamide]
Cc1ncc(Cl)cc1C(=O)N[C@H]1CC[C@H](Cn2c(=O)n(-c3cccc(-c4ncco4)c3)c3ccccc32)CC1 [Example 516, 5-chloro-2-methyl-N-((1r,4r)-4-((3-(3-(oxazol-2-yl)phenyl)-2-oxo-2,3-dihydro-1H-benzo [d]imidazol-1-yl)methyl)cyclo-hexyl)nicotinamide]
COC1CN(c2ccc(-n3c(=O)n(C[C@H]4CC[C@H](NC(=O)c5cc(Cl)cnc5C(F)F)CC4)c4ccccc43)cn2)C1 [Example 554, 5-chloro-2-(difluoromethyl)-N-((1r,4r)-4-((3-(6-(3-methoxyazetidin-1-yl)pyridin-3-yl)-2-oxo-2,3-dihydro-1H-benzo[d]imidazol-1-yl)methyl)cyclohexyl)nicotinamide]
N#Cc1ccccc1-n1c(=O)n(C[C@H]2CC[C@H](NC(=O)c3cc(Cl)cnc3C(F)(F)F)CC2)c2ccccc21 [Example 291, 5-chloro-N-((1r,4r)-4-((3-(2-cyanophenyl)-2-oxo-2,3-dihydro-1H-benzo[d]imidazol-1-yl)methyl)cyclo-hexyl)-2-(trifluoromethyl) nicotinamide]
CCn1cc2cc(-n3c(=O)n(C[C@H]4CC[C@H](NC(=O)c5cc(Cl)cnc5C)CC4)c4ccccc43)cnc2n1 [Example 254, 5-chloro-N-((1r,4r)-4-((3-(2-ethyl-2H-pyrazolo[3,4-b]pyridin-5-yl)-2-oxo-2,3-dihydro-1H-benzo[d]imidazol-1-yl)methyl)cyclohexyl)-2-methylnicotinamide]
CNc1ncc(-n2c(=O)n(C[C@H]3CC[C@H](NC(=O)c4cc(Cl)cnc4C(F)F)CC3)c3ccccc32)cc1F [Example 639, 5-chloro-2-(difluoromethyl)-N-((1r,4r)-4-((3-(5-fluoro-6-(methylamino)pyridin-3-yl)-2-oxo-2,3-dihydro-1H-benzo[d]imidazol-1-yl)methyl)cyclohexyl)nicotinamide]
Cc1ncc(Cl)cc1C(=O)N[C@H]1CC[C@H](Cn2c(=O)n(CC(=O)c3ccc(F)cc3F)c3ccccc32)CC1 [Example 12, 5-chloro-N-((1r,4r)-4-((3-(2-(2,4-difluorophenyl)-2-oxoethyl)-2-oxo-2,3-dihydro-1H-benzo[d]imidazol-1-yl)methyl)cyclohexyl)-2-methylnicotinamide]
Cc1nccc(-n2c(=O)n(C[C@H]3CC[C@H](NC(=O)c4cc(Cl)cnc4C(F)F)CC3)c3ccccc32)c1C [Example 364, 5-chloro-2-(difluoromethyl)-N-((1r,4r)-4-((3-(2,3-dimethyl-pyridin-4-yl)-2-oxo-2,3-dihydro-1H-benzo[d]imidazol-1-yl)methyl)cyclohexyl)nicotinamide]
COc1cncc(-n2c(=O)n(C[C@H]3CC[C@H](NC(=O)c4cc(Cl)cnc4C)CC3)c3ccccc32)c1 [Example 484, 5-chloro-N-((1r,4r)-4-((3-(5-methoxypyridin-3-yl)-2-oxo-2,3-dihydro-1H-benzo[d]imidazol-1-yl)methyl)cyclo-hexyl)-2-methylnicotinamide]
Cc1ncc(Cl)cc1C(=O)N[C@H]1CC[C@H](Cn2c(=O)n(-c3ccc(C(=O)Nc4ccncc4)nc3)c3ccccc32)CC1 [Example 181, 5-(3-(((1r,4r)-4-(5-chloro-2-methylnicotinamido)cyclo-hexyl)methyl)-2-oxo-2,3-dihydro-1H-benzo[d]imidazol-1-yl)-N-(pyridin-4-yl) picolinamide]
Cc1ncc(Cl)cc1C(=O)N[C@H]1CC[C@H](Cn2c(=O)n(-c3ccc4ncccc4c3)c3ccccc32)CC1 [Example 344, 5-chloro-2-methyl-N-((1r,4r)-4-((2-oxo-3-(quinolin-6-yl)-2,3-dihydro-1H-benzo[d]imidazol-1-yl)methyl)cyclo-hexyl)nicotinamide]
C[C@H](O)COc1ccc(-n2c(=O)n(C[C@H]3CC[C@H](NC(=O)c4cc(Cl)cnc4C(F)(F)F)CC3)c3ccccc32)cn1 [Example 467, 5-chloro-N-((1S,4r)-4-((3-(6-((S)-2-hydroxypropoxy)pyridin-3-yl)-2-oxo-2,3-dihydro-1H-benzo[d]imidazol-1-yl)methyl)cyclohexyl)-2-(trifluoromethyl)nicotinamide]
